Target: T1, human TRPM8 (Homo sapiens, UniProt Q7Z2W7)
T1 construct: expressed in transfected cells; host or cells: Chinese hamster ovary (CHO) cells, T-REx tetracycline-inducible expression system (Invitrogen), co-transfected with pcDNA3.1 jellyfish aequorin
Assay: Luminescence readout assay for measuring intracellular calcium (aequorin), hTRPM8 antagonism
Assay type: cell-based
Conditions: CHO cell line expressing human TRPM8 and aequorin; activation by icilin, L-menthol or cold buffer (table does not say which)

T1 sequence (Q7Z2W7 whole entry): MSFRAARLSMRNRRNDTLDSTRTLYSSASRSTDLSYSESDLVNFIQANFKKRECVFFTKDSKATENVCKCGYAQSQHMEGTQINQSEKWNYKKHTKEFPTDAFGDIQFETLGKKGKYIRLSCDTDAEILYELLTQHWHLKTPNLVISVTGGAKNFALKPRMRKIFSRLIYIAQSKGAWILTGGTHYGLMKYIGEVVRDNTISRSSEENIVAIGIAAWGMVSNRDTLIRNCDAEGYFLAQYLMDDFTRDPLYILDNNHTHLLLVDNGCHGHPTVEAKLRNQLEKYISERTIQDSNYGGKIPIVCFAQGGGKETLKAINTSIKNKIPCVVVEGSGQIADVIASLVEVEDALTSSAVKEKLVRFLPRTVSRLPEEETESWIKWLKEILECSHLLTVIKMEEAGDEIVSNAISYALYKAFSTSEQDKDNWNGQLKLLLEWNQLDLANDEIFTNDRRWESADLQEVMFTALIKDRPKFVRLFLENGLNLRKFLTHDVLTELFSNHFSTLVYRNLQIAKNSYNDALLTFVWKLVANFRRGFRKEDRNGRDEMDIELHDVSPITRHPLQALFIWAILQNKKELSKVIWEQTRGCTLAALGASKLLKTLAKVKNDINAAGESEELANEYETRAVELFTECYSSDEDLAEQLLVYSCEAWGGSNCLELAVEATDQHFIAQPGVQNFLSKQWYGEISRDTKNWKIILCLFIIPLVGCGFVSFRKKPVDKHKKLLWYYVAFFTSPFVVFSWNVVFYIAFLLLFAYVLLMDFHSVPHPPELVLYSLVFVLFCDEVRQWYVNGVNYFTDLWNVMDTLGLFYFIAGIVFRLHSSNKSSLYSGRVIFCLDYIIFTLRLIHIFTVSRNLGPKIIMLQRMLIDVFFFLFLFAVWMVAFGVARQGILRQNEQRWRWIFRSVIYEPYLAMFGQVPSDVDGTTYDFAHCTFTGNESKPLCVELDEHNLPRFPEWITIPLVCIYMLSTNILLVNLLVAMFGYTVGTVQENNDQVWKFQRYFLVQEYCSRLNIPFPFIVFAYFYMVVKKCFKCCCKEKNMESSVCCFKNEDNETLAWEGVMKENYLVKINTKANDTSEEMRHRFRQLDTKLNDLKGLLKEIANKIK

| SMILES | IC50 [µM] |
| --- | --- |
| CCOC(=O)[C@H](C)NC(=O)N[C@@H](c1ccc(C(F)(F)F)cc1)c1ncccc1C(F)(F)F [Example 94, (S)-ethyl 2-(3-((S)-(4-(trifluoro-methyl)-phenyl)(3-(trifluoro-methyl)-pyridin-2-yl)-ureido)-propanoate (2,2,2-trifluoro-acetate)] | 1.71 |
| O=C(Nc1ccccc1Cl)N[C@@H](c1ccc(C(F)(F)F)cc1)c1ncccc1C(F)(F)F [Example 181, (S)-1-(2-chlorophenyl)-3-((4-(trifluoro-methyl)phenyl) (3-(trifluoro-methyl)pyridin-2-yl)methyl)urea (2,2,2-trifluoro-acetate)] | 0.142 |
| O=C(Nc1cccnc1)N[C@@H](c1ccc(F)cc1)c1ncccc1C(F)(F)F [Example 19, (S)-((4-fluorophenyl)-(3-(trifluoro-methyl)-pyridin-2-yl)-methyl)-3-(pyridin-3-yl)-urea] | 0.382 |
| O=C(Nc1cccnc1)N[C@@H](c1ccc(C(F)(F)F)c(F)c1)c1ccccc1C(F)(F)F [Example 121, (S)-1-((3-fluoro-4-(trifluoro-methyl)-phenyl)(2-(trifluoro-methyl)-phenyl)-methyl)-3-(pyridin-3-yl)-urea] | 0.084 |
| O=C(NCc1ccccc1)N[C@@H](c1ccc(C(F)(F)F)cc1)c1ncccc1C(F)(F)F [Example 109, (S)-1-benzyl-3-((4-(trifluoro-methyl)-phenyl)(3-(trifluoro-methyl)-pyridin-2-yl)-methyl)urea (2,2,2-trifluoro-acetate)] | 0.11 |
| COc1ccc([C@H](C)NC(=O)N[C@@H](c2ccc(C(F)(F)F)cc2)c2ncccc2C(F)(F)F)cc1 [Example 80, 1-((S)-1-(4-methoxy-phenyl)ethyl)-3-((S)-(4-(trifluoro-methyl)-phenyl)(3-(trifluoro-methyl)-pyridin-2-yl)-methyl)urea (2,2,2-trifluoro-acetate)] | 0.399 |
| O=C1CCC(OC(=O)N[C@@H](c2ccc(OC(F)(F)F)c(F)c2)c2ncccc2F)CN1 (stereo partly drawn) [Example 178, 6-Oxopiperidin-3-yl((S)-(3-fluoro-4-(trifluoromethoxy)phenyl)(3-fluoropyridin-2-yl)methyl)carbamate] | 2.06 |
| O=C(Nc1cccnc1)NC(c1ccc(C(F)(F)F)cc1)c1cccnc1Br (stereo not shown) [Example 114, 1-((2-bromopyridin-3-yl)(4-(trifluoro-methyl)-phenyl)-methyl)-3-(pyridin-3-yl)-urea (2,2,2-trifluoro-acetate)] | 0.886 |
| O=C(Nc1cccc2ncccc12)N[C@@H](c1ccc(C(F)(F)F)cc1)c1ncccc1C(F)(F)F [Example 179, (S)-1-(Quinolin-5-yl)-3-((4-(trifluoromethyl)phenyl)(3-(trifluoromethyl)pyridin-2-yl)methyl)urea] | 0.077 |
| Cc1c(NC(=O)N[C@@H](c2ccc(C(F)(F)F)cc2)c2ncccc2C(F)(F)F)cccc1[N+](=O)[O-] [Example 142, (S)-1-(2-methyl-3-nitrophenyl)-3-((4-(trifluoro-methyl)-phenyl)(3-(trifluoro-methyl)-pyridin-2-yl)-methyl)urea (2,2,2-trifluoro-acetate)] | 2.18 |
| O=C(Nc1ccc(F)cc1)NC(c1ccccc1)c1ccc(C(F)(F)F)cc1 (stereo not shown) [Example 171, 1-(4-Fluorophenyl)-3-(phenyl(4-(trifluoromethyl)phenyl)-methyl)urea] | 0.915 |
| O=C(Nc1ccc(-c2noc(=O)[nH]2)cc1)N[C@@H](c1ccc(C(F)(F)F)cc1)c1ncccc1C(F)(F)F [Example 148, (S)-1-(4-(5-Oxo-4,5-dihydro-1,2,4-oxadiazol-3-yl)phenyl)-3-((4-(trifluoromethyl)phenyl)(3-(trifluoromethyl)pyridin-2-yl)methyl)urea] | 1.61 |
| O=C(Nc1cccnc1)NC(c1ccc(C(F)(F)F)cc1)c1ccncc1Br (stereo not shown) [Example 120, 1-((3-bromopyridin-4-yl)(4-(trifluoro-methyl)-phenyl)-methyl)-3-(pyridin-3-yl)-urea (2,2,2-trifluoro-acetate)] | 2.85 |
| O=C1Cc2cc(NC(=O)N[C@@H](c3ccc(C(F)(F)F)cc3)c3ncccc3F)ccc2N1 [Example 149] | 0.055 |
| C[C@H](NC(=O)N[C@@H](c1ccc(C(F)(F)F)cc1)c1ccccc1Br)C(F)(F)F [Example 154, 1-((S)-(2-bromophenyl) (4-(trifluoro-methyl)-phenyl)-methyl)-3-((S)-1,1,1-trifluoro-propan-2-yl)-urea] | 0.9 |
| O=C(Nc1cc[nH]c(=O)c1)N[C@@H](c1ccc(C(F)(F)F)cc1)c1ncccc1F [Example 164, (S)-1-((3-fluoropyridin-2-yl)(4-(trifluoro-methyl)-phenyl)-methyl)-3-(2-oxo-1,2-dihydropyridin-4-yl)urea] | 2.88 |
| O=C(Nc1cccnc1)N[C@@H](c1ccc2ncccc2c1)c1ncccc1C(F)(F)F [Example 17, (S)-1-(pyridin-3-yl)-3-(quinolin-6-yl(3-(trifluoro-methyl)-pyridin-2-yl)-methyl)urea] | 0.811 |
| CC(C)(C)CC(C)(C)NC(=O)N[C@@H](c1ccc(C(F)(F)F)cc1)c1ncccc1C(F)(F)F [Example 131, (S)-1-((4-(trifluoro-methyl)-phenyl)(3-(trifluoro-methyl)-pyridin-2-yl)-methyl)-3-(2,4,4-trimethylpentan-2-yl)urea (2,2,2-trifluoro-acetate)] | 0.666 |
| Cc1cccc([C@H](NC(=O)Nc2cccnc2)c2ncccc2C(F)(F)F)c1 [Example 7, (S)-1-((3-methylphenyl) (3-(trifluoro-methyl)-pyridin-2-yl)-methyl)-3-(pyridin-3-yl)-urea] | 0.723 |
| O=C(Nc1cncnc1)N[C@@H](c1ccc(C(F)(F)F)cc1)c1ncccc1C(F)(F)F [Example 57, (S)-1-(pyrimidin-5-yl)-3-((4-(trifluoro-methyl)-phenyl)(3-(trifluoro-methyl)-pyridin-2-yl)-methyl)urea] | 0.167 |
| Cn1cc(NC(=O)N[C@@H](c2ccc(C(F)(F)F)cc2)c2ncccc2F)ccc1=O [Example 162, (S)-1-((3-fluoropyridin-2-yl)(4-(trifluoro-methyl)-phenyl)-methyl)-3-(1-methyl-6-oxo-1,6-dihydropyridin-3-yl)urea] | 0.491 |

More lines, now with the values ahead:

| IC50 [µM] | SMILES |
| --- | --- |
| 1.5 | COC(=O)[C@H](C)NC(=O)N[C@@H](c1ccc(C(F)(F)F)cc1)c1ncccc1C(F)(F)F [Example 79, (S)-methyl-2-(3-((S)-(4-(trifluoro-methyl)-phenyl)(3-(trifluoro-methyl)-pyridin-2-yl)-methyl)-ureido)-propanoate (2,2,2-trifluoro-acetate)] |
| 0.115 | CCCC[C@H](C)NC(=O)N[C@@H](c1ccc(C(F)(F)F)cc1)c1ncccc1C(F)(F)F [Example 83, 1-((S)-hexan-2-yl)-3-((S)-(4-(trifluoro-methyl)-phenyl)(3-(trifluoro-methyl)-pyridin-2-yl)-methyl)urea (2,2,2-trifluoro-acetate)] |
| 1.75 | O=C(Nc1cccnc1)N[C@H](c1cccc(C(F)(F)F)c1)c1ccc(C(F)(F)F)c(F)c1 [Example 117, (R)-1-((3-fluoro-4-(trifluoro-methyl)-phenyl)(3-(trifluoro-methyl)-phenyl)-methyl)-3-(pyridin-3-yl)-urea (2,2,2-trifluoro-acetate)] |
| 0.172 | O=C(Nc1cccnc1)N[C@@H](c1cccc(Cl)c1)c1ncccc1C(F)(F)F [Example 3, (S)-1-((3-chlorophenyl)-(3-(trifluoro-methyl)-pyridin-2-yl)-methyl)-3-(pyridin-3-yl)-urea] |
| 3.14 | CCOc1cccc(NC(=O)N[C@@H](c2ccc(C(F)(F)F)cc2)c2ncccc2C(F)(F)F)c1 [Example 126, (S)-1-(3-ethoxyphenyl)-3-((4-(trifluoro-methyl)-phenyl)(3-(trifluoro-methyl)-pyridin-2-yl)-methyl)urea (2,2,2-trifluoro-acetate)] |
| 1.59 | CCOc1ccccc1CNC(=O)N[C@@H](c1ccc(C(F)(F)F)cc1)c1ncccc1C(F)(F)F [Example 133, (S)-1-(2-ethoxybenzyl)-3-((4-(trifluoro-methyl)-phenyl)(3-(trifluoro-methyl)-pyridin-2-yl)-methyl)urea (2,2,2-trifluoro-acetate)] |
| 0.175 | O=C(Nc1cccnc1)N[C@@H](c1cccc(C(F)(F)F)c1)c1ncccc1C(F)(F)F [Example 9, (S)-1-((3-(trifluoro-methyl)-phenyl)(3-(trifluoro-methyl)-pyridin-2-yl)-methyl)-3-(pyridin-3-yl)-urea] |
| 0.141 | CC(C)[C@H](C)NC(=O)N[C@@H](c1ccc(C(F)(F)F)cc1)c1ncccc1C(F)(F)F [Example 65, 1-((S)-3-methylbutan-2-yl)-3-((S)-(4-(trifluoro-methyl)-phenyl)(3-(trifluoro-methyl)-pyridin-2-yl)-methyl)urea (2,2,2-trifluoro-acetate)] |
| 0.147 | CCOC(=O)N[C@@H](c1ccc(C(F)(F)F)cc1)c1ncccc1C(F)(F)F [Example 170, (S)-Ethyl((4-(trifluoromethyl)phenyl)(3-(trifluoromethyl)-pyridin-2-yl)methyl)carbamate] |
| 0.593 | O=C(Nc1cccnc1)N[C@@H](c1cccc(F)c1)c1ncccc1C(F)(F)F [Example 8, (S)-1-((3-fluorophenyl)-(3-(trifluoro-methyl)-pyridin-2-yl)-methyl)-3-(pyridin-3-yl)-urea] |
| 0.101 | O=C(Nc1cccnc1)N[C@@H](c1ccc2ccccc2c1)c1ncccc1C(F)(F)F [Example 11] |
| 0.066 | CC(C)NC(=O)N[C@@H](c1ccc(C(F)(F)F)cc1)c1ncccc1C(F)(F)F [Example 32, (S)-1-isopropyl-3-((4-(trifluoro-methyl)-phenyl)(3-(trifluoro-methyl)-pyridin-2-yl)-methyl)urea] |
| 0.64 | O=C(Nc1cnc2ccccc2c1)N[C@@H](c1ccc(C(F)(F)F)cc1)c1ncccc1C(F)(F)F [Example 59, (S)-1-(quinolin-3-yl)-3-((4-(trifluoro-methyl)-phenyl)(3-(trifluoro-methyl)-pyridin-2-yl)-methyl)urea] |

— patent US8778941B2, “TRPM8 antagonists and their use in treatments” (AMGEN Inc., priority 2011, dated 2014)
